For series [1] the following is noted: for comparison; cited from earlier work.
Series [2] relates to human corneal epithelial cell lines (HCE-T and CEPI-17-CI.4) and human conjunctival epithelial cells.
Description: Hypromellose, Carbopol or sodium hyaluronate were used to supplement an ocular surface medium at concentrations ranging from 0.0001% to 0.4%. The pH and osmolarity of all of the resultant formulations were controlled and adjusted to be within physiological range. The biophysical properties, i.e. viscosity and surface tension, were determined with a rheometer and an electronic manometer. Two human corneal epithelial cell lines (HCE-T and CEPI-17-CI.4) and two human conjunctival epithelial cells were used to investigate cell proliferation, viability and migration in response to the formulations by means of a luminescence based ATP-assay, a calcein AM/EthD-1 assay and a colony dispersion assay.

The source of these data is patent publication US20070280924A1, “Pharmaceutical Preparations For And Treatment Of Ocular Surface and Other Disorders” (priority 2004, published 2007).

Regarding `O` [water], the Surface tension result in series [1] is reported as “about 70 mN/m”.

Regarding hypromellose, the Toxicity result in series [2] is given as “low toxicity”.
